Drawing on patent publication US11572590B2, “Methods for evaluating tumor cell spheroids using 3D microfluidic cell culture device” (Dana-Farber Cancer Institute, Inc., priority 2017, dated 2023), this text covers inhibition for one molecule.

Read-outs that look alike come from different tables or passages of the source.

What all share (assay): SelectScreen Kinase Profiling, single point inhibition and IC50 for off-target kinases
Common to all, as to format: biochemical

In test [1] the target is T1, off-target kinases (Homo sapiens, UniProt O15530).
T1 sequence (O15530 1-556): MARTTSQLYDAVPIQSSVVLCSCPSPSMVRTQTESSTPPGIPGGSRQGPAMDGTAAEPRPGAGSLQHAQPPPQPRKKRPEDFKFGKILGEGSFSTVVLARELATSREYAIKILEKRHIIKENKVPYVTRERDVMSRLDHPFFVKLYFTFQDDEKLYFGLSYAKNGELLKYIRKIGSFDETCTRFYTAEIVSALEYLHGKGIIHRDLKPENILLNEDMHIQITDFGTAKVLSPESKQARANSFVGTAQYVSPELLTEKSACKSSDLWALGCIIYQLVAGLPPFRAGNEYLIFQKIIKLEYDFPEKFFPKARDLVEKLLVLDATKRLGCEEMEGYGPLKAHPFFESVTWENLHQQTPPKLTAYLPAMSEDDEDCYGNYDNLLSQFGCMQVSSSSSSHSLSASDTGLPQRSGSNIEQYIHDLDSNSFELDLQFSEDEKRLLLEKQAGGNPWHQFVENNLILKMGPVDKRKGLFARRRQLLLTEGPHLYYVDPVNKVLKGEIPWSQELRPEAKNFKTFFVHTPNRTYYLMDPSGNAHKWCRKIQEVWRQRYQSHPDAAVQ
As to conditions: ZLYTE.

Test [2] has as its target off-target kinases (Homo sapiens, UniProt Q9Y4K4). The note with it: MAP4K5 (KHS1), ZLYTE, ATP Km app.
In test [3] the target is off-target kinases (Homo sapiens, UniProt Q9Y6E0). The note with it: STK24 (MST3), ZLYTE, ATP Km app.
The target in test [4] is off-target kinases (Homo sapiens, UniProt Q02750, S218D/S222D). As to conditions: MAP2K1 (MEK1) S218D S222D (mutant), LanthaScreen Binding.
Test [5] addresses T2, off-target kinases (Homo sapiens, UniProt P51813).
T2 sequence (P51813 1-675): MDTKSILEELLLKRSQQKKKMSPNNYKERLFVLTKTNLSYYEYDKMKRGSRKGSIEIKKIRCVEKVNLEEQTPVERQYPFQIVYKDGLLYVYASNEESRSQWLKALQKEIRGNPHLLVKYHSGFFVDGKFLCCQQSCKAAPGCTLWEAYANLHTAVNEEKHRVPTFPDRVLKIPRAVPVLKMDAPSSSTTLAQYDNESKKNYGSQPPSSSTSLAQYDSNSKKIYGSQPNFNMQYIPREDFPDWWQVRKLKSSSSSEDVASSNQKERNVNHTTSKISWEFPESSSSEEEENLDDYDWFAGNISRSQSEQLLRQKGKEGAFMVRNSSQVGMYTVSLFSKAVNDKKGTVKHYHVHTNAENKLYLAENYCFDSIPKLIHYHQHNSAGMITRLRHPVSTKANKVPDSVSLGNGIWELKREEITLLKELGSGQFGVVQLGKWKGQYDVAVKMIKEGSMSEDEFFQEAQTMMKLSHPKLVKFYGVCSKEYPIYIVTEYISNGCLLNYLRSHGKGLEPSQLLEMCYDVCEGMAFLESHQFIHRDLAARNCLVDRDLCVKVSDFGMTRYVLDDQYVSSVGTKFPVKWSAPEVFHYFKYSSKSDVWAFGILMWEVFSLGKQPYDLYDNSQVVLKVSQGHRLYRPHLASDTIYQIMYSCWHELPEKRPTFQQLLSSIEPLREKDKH
As to conditions: BMX, ZLYTE, ATP Km app.

The target of test [6] is off-target kinases (Homo sapiens, UniProt P07949). As to conditions: RET, ATP Km app, ZLYTE.
Chain of off-target kinases (Homo sapiens, UniProt P07949) (P07949 29-1114): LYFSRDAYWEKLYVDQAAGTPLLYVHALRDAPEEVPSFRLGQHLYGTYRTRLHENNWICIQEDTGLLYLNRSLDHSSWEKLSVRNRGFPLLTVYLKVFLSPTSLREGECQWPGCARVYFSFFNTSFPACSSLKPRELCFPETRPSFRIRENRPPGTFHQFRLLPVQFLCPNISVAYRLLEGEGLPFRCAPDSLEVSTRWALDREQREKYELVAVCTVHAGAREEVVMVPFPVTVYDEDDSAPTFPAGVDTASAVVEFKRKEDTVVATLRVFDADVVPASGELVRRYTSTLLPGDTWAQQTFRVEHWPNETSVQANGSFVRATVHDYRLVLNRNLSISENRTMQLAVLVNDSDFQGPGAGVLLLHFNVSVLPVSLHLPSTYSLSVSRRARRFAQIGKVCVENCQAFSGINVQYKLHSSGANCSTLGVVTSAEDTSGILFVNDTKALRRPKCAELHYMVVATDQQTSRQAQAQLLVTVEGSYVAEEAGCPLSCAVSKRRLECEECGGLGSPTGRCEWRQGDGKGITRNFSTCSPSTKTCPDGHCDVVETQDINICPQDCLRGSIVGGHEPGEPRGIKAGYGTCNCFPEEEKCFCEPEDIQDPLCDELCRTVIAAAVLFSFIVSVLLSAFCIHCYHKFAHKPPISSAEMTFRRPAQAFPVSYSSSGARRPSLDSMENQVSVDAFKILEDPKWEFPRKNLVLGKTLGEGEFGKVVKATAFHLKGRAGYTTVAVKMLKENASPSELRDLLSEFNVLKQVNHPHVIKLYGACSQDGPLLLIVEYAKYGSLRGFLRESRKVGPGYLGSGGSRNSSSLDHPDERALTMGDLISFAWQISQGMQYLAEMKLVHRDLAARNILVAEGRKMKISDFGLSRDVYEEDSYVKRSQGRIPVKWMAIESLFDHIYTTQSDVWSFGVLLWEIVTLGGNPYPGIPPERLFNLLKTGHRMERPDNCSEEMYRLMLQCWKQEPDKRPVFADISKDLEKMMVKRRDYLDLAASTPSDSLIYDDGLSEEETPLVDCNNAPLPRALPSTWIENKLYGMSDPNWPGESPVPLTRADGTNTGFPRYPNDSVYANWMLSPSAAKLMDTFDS

Chain of off-target kinases (Homo sapiens, UniProt Q9Y4K4) (Q9Y4K4 whole entry): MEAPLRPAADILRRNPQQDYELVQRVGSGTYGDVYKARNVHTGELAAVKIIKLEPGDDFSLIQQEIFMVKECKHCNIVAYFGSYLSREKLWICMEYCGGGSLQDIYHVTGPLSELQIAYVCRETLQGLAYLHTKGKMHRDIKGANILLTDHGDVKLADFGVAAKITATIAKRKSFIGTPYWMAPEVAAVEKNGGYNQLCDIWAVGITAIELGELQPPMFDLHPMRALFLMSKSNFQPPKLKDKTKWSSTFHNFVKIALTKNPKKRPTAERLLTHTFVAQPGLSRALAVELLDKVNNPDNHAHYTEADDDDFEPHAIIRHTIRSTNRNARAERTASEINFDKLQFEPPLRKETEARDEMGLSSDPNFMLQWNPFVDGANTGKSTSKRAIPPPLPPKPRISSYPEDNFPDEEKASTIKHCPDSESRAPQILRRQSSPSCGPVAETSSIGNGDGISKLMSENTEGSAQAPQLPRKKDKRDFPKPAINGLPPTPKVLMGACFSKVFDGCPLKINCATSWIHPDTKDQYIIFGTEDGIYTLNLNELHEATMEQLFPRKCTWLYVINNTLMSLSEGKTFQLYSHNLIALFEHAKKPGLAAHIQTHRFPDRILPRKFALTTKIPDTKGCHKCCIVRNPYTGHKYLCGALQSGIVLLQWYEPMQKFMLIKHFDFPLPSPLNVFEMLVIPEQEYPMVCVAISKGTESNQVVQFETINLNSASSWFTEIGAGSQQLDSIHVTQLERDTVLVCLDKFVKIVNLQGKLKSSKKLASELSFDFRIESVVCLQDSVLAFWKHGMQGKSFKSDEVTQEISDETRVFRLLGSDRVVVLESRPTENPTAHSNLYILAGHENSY
Chain of off-target kinases (Homo sapiens, UniProt Q02750, S218D/S222D) (Q02750 whole entry S218D/S222D): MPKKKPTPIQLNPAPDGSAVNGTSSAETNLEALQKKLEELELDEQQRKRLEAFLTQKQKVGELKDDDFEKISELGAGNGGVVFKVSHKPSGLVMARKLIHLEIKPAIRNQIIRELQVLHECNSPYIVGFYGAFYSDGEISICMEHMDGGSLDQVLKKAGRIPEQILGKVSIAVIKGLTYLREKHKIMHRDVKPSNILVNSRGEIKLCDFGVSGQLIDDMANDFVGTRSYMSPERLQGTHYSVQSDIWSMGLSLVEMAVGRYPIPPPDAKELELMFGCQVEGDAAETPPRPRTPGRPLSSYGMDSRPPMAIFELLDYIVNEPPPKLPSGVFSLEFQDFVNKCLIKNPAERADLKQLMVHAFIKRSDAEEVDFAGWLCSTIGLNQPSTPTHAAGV
Chain of off-target kinases (Homo sapiens, UniProt Q9Y6E0) (Q9Y6E0 whole entry): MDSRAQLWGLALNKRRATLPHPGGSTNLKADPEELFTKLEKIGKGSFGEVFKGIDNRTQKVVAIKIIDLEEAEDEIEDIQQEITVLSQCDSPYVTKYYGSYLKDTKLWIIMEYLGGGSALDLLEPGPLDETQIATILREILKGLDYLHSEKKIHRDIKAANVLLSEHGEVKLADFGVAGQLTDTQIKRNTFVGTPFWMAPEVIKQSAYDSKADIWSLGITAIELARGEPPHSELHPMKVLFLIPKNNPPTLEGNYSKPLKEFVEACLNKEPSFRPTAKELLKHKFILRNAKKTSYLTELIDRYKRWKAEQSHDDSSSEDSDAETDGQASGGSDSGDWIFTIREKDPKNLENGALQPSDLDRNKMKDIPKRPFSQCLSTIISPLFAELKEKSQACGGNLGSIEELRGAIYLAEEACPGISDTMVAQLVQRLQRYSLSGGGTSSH

With `N#Cc1cc(-c2ncnc(Nc3ccc(N4CCN(C5COC5)CC4)cc3)n2)ccc1OC1CCOCC1` [Compound 1, 5-(4-((4-(4-(oxetan-3-yl)piperazin-1-yl)phenyl)amino)-1,3,5-triazin-2-yl)-2-((tetrahydro-2H-pyran-4-yl)oxy)benzonitrile], the inhibition in test [1] (PDK1, ATP 100, read-out: % Inhibition 1) is 14%; in test [1] (PDK1, ATP 100, read-out: % Inhibition 2), 16%; in test [1] (PDK1, ATP 100, read-out: % Inhibition Avg), 15%; in test [1] (PDK1 Direct, ATP Km app, read-out: % Inhibition 1), 85%; in test [1] (PDK1 Direct, ATP Km app, read-out: % Inhibition 2), 74%; in test [1] (PDK1 Direct, ATP Km app, read-out: % Inhibition Avg), 79%. Moreover, the inhibition in test [2] (read-out: % Inhibition 1) is 11%; in test [2] (read-out: % Inhibition 2), 12%; in test [2] (read-out: % Inhibition Avg), 12%; in test [3] (read-out: % Inhibition 1), -5%; in test [3] (read-out: % Inhibition 2), 8%; in test [3] (read-out: % Inhibition Avg), 1%. The inhibition in test [4] (read-out: % Inhibition 1) came to 10%; in test [4] (read-out: % Inhibition 2) it was 7%; in test [4] (read-out: % Inhibition Avg) it was 8%; in test [5] (read-out: % Inhibition 1) it was 12%; in test [5] (read-out: % Inhibition 2), 13%; in test [5] (read-out: % Inhibition Avg) it was 12%. The inhibition in test [6] (read-out: % Inhibition 1) is 46%; in test [6] (read-out: % Inhibition 2) it was 42%; in test [6] (read-out: % Inhibition Avg), 44%.
